Reference: patent US11673853B2, “Small molecule AMPK activators” (University of Pittsburgh—Of the Commonwealth System of …, priority 2016, dated 2023)

Assays:
mice = experiment: Pseudomonas (PA103) pneumonia model; assay type: in vivo; details: 2 or 10 mg/kg i.p., PA103 i.t., 18 h
Description: FIG. 7. Compound 12 (2 or 10 mg/kg) was administered to mice though an i.p. injection, and mice were immediately challenged with P. aeruginosa (strain PA103, 1.5*10^4 cfu/mouse, i.t.) or without (control, CON) for an additional 18 h. Mice were then euthanized and lungs were lavaged with saline, harvested, and then homogenized. Lavage protein, cell counts, bacterial count and cytokine secretions (A-C) were measured. Lungs were homogenized before being assayed by immunoblotting. The data are representative of data from n=5-6 mice/group, *P<0.05 versus vehicle.
Compound 12 was tested in two pneumonia model using Pseudomonas or LPS endotoxin.

Diet-induced obese mice = Diet-induced obese mice study, 14 days dosing; assay type: in vivo; details: once daily for 14 days; BC1618 8 or 40 mg/kg/d
Description: FIG. 12. Diet-induced obese mice were fed a high-fat diet for 19 weeks and then injected with vehicle or drug once daily for 14 days. Daily body weights (in grams) of the mice are shown.
Diet-induced obese mice arrived from Jackson Labs and recovered two weeks in satellite housing before study. Mice were 25 weeks old and fed a high-fat diet for 19 weeks at the time of study. Body weight, fat and lean mass were measured and mice were grouped in order to match body weights at ˜46.5 g average per group prior to study. Following the acute dosing trial, mice were injected with vehicle or drug 1× daily between noon and 2 pm for 14 days (BC1618-L (low dose)=8 mg/kg/d, BC1618-H (high dose)=40 mg/kg/d). Body weight was recorded daily (FIGS. 12-15). FIG. 12 and FIG. 13 show body weight in grams and FIG. 14 and FIG. 15 show body weight as a percentage of body weight on day 0 (DO).
FIGS. 16-19 show the change (A) in body weight (BW) from day 0 to day 14 expressed as change in grams (FIG. 16 and FIG. 17) or as percent change from day 0 (FIG. 18 and FIG. 19).
Body composition was measured at DO in the body weight matched animals and again at day 14 (D14). Data in FIGS. 20-23 represent the change in fat mass from DO to D14 expressed as grams (FIG. 20 and FIG. 21) or as percent change (FIG. 22 and FIG. 23).
Data in FIGS. 24-27 represent the change in lean mass from DO to D14 expressed as grams (FIG. 24 and FIG. 25) and as percent change (FIG. 26 and FIG. 27). Overall there appears to be a modest effect of vehicle and drug to reduce lean mass over 14 days, but no differences between groups. Changes in BW over 14 days therefore reflect changes in fat mass and not lean mass.

**Q.** How did the lavage bacterial counts (mice) turn out when `OC(COc1ccc(F)cc1)CN(Cc1ccccc1)Cc1ccccc1` (centres unmarked) [Compound 12] was run?
**A.** without affecting lavage bacterial counts

**Q.** And the lavage cell counts (mice)?
**A.** substantially decreased

**Q.** What about the lavage protein concentration (mice) of the same compound?
**A.** substantially decreased

**Q.** And the lavage proinflammatory cytokines (mice; dose dependent)?
**A.** effectively reduces

**Q.** What about the “pAMPK levels within the lung tissue” value (mice; immunoblotting) of the same compound?
**A.** drastically increasing

**Q.** Which “body weight loss (daily body weight)” value (Diet-induced obese mice) does the source give for `OC(COc1ccc(C(F)(F)F)cc1)CN(Cc1ccccc1)Cc1ccccc1` (centres unmarked) [Compound 23] here?
**A.** effect of AICAR and BC1618 on body weight loss

**Q.** What about the “change in body weight from day 0 to day 14” value (Diet-induced obese mice) of the same compound?
**A.** an effect due to AICAR or BC1618

**Q.** And the “change in fat mass from D0 to D14” value (Diet-induced obese mice)?
**A.** apparent additive effect
